The data set is described as follows: Waters ACQUITY UPLC BEH C18, 100 × 2.1 mm, 1.7 µm, 40 °C, 0.3 to 0.4 mL/min, estimated dead time 0.63 min; A: water + 0.1% formic acid; B: methanol + 0.1% formic acid; gradient (min/%B) 0/0.5 0.1/0.5 10/80 10.1/99.5 12/99.5. To be noted: stereoisomer not certain.
With `Nc1[nH]c(=O)[nH]c(=O)c1OC1OC(CO)C(OC2OC(CO)C(O)C(O)C2O)C(O)C1O` (stereo not given), the LC retention time was 2 min.

For `NC(C(=O)O)c1ccccc1` (stereo not given), the LC retention time was 2 min.

For the molecule `CC1CCC2(OC1)OC1CC3C4CC=C5CC(O)CC(OC6OCC(O)C(O)C6OC6OC(C)C(O)C(O)C6O)C5(C)C4CCC3(C)C1C2C` (stereo not given), the LC retention time was 8.57 min.

Regarding `O=c1cc(-c2ccc(O)c(O)c2)oc2cc(O)c(C3OC(CO)C(O)C(O)C3OC3OC(CO)C(O)C(O)C3O)c(O)c12` (stereo not given), the LC retention time was 3.44 min.

On to `CC(C)CC(N)C(=O)NC(C)C(=O)O` (stereo not given), for which the LC retention time is 2.02 min.

Regarding `CCCCCCCC(O)SCC(NC(=O)CCC(N)C(=O)O)C(=O)NCC(=O)O` (stereo not given), the LC retention time is 4.58 min.

Regarding `CCC1C(=O)OCC1Cc1cncn1C` (stereo not given), the LC retention time was 2.4 min.

With `O=c1oc2cc(OC3OC(CO)C(O)C(O)C3O)ccc2c2oc3cc(O)ccc3c12` (stereo not given), the LC retention time is 4.38 min.

For `COc1c(C=CC(=O)c2ccc(O)c(O)c2)ccc(O)c1CC=C(C)C`, the LC retention time was 7.49 min.

`COc1cc(-c2[o+]c3cc(O)cc(OC4OC(CO)C(O)C(O)C4O)c3cc2OC2OC(COC3OC(C)C(OC(=O)C=Cc4ccc(O)cc4)C(O)C3O)C(O)C(O)C2O)cc(O)c1O` (stereo not given): the LC retention time was 3.76 min.

Regarding `O=C(C=Cc1ccc(O)c(O)c1)OC1CC2(O)CC(OC2=O)C1OC(=O)C=Cc1ccc(O)c(O)c1` (stereo not given), the LC retention time was 4.54 min.

As for `COC(=O)C1=C2Nc3ccccc3C23CCN2C4OC56C7CC4(CN5c4c(OC)cccc4C64CCN5CCC6OCCC6(C7)C54)C4OCCC4(C1)C23` (stereo not given), the LC retention time was 5.79 min.

With `C=CCSCC(NC(=O)CCC(N)C(=O)O)C(=O)O` (stereo not given), the LC retention time is 2.98 min.

Take `CC(CCC1(O)OC2CC3C4CC=C5CC(O)CC(OC6OCC(O)C(OC7OCC(O)C(O)C7O)C6OC6OC(C)C(O)C(O)C6O)C5(C)C4CCC3(C)C2C1C)COC1OC(CO)C(O)C(O)C1O` (stereo not given): the LC retention time is 4.15 min.

As to `CCC1CN2CCc3cc(OC)c(OC)cc3C2CC1CC1NCCc2cc(O)c(OC)cc21` (stereo not given), the LC retention time was 2.98 min.

With `CC(C)=CCc1cc(C2CC(=O)c3c(O)cc(O)cc3O2)cc(O)c1O` (stereo not given), the LC retention time is 7.75 min.

For the molecule `CC=C1CN2CCC34C(=C(C=O)C1CC23)Nc1c(O)cccc14` (stereo not given), the LC retention time is 3.38 min.

As for `CC1OC(OC2CCC3(C)C(CCC4(C)C3C=CC35OCC6(CCC(C)(C)CC63)C(O)CC45C)C2(C)CO)C(O)C(OC2OC(CO)C(O)C(O)C2O)C1O` (stereo not given), the LC retention time was 8.25 min.

For `COC(=O)C1=C2Nc3ccccc3C23CCN2CCC1C(C(C)OC)C23` (stereo not given), the LC retention time is 4.55 min.

`CCCSSCC(NC(=O)CCC(N)C(=O)O)C(=O)NCC(=O)O` (stereo not given): the LC retention time was 3.78 min.

Consider `CC(CCC1C(CO)=CC(=O)CC1(C)C)OC1OC(CO)C(O)C(O)C1O` (stereo not given), for which the LC retention time is 3.81 min.

For the molecule `CC1CCC(C(C)C2CCC3C4CC(=O)C5CC(O)CCC5(C)C4CCC23C)=NC1` (stereo not given), the LC retention time is 4.95 min.

As for `NC(=O)CCC(NC(=O)CCCc1ccccc1)C(=O)O` (stereo not given), the LC retention time is 2.88 min.

With `CC12CC3(O)OC(O1)C1(COC(=O)c4ccccc4)C3CC21OC1OC(CO)C(O)C(O)C1O` (stereo not given), the LC retention time is 3.78 min.

`CN1CCC23c4ccccc4NC1C21CCN(C)C3Nc2ccccc21`: the LC retention time is 2.57 min.

As for `CC1(C)CCC2(C(=O)O)CCC3(C)C(=CCC4C5(C)CC(O)C(OC6OC(CO)C(OC7OC(CO)C(O)C(O)C7O)C(O)C6O)C(C)(CO)C5CCC43C)C2C1` (stereo not given), the LC retention time was 7.01 min.

Take `O=c1c(O)c(-c2ccc(O)c(O)c2)oc2cc(O)cc(O)c12`: the LC retention time is 5.37 min.

For `O=c1cc(-c2ccc(O)cc2)oc2c(C3OCC(O)C(O)C3O)c(O)c(C3OCC(O)C(O)C3O)c(O)c12` (stereo not given), the LC retention time is 3.89 min.

Consider `O=C(O)C1CCC(=O)N1CC1(O)OC(CO)C(O)C1O` (stereo not given), for which the LC retention time was 1.77 min.

Take `CC(C)CC(NC(=O)CCC(N)C(=O)O)C(=O)O` (stereo not given): the LC retention time was 2.54 min.

Source of the values: the RepoRT retention time repository.
